Assays:
[1] = biological target: immunoproteasome LMP7/B5i subunit (Homo sapiens, UniProt P28062); test: Caliper-based proteasome enzymatic activity assay, LMP7; type: biochemical; conditions: human recombinant immunoproteasome 0.3 nM, FAM-labeled peptide substrate 1 μM, rt 3 h; read-out: LMP7 subunit IC50
[2] = biological target: constitutive proteasome β5c unit (Homo sapiens, UniProt P28074); test: Caliper-based proteasome enzymatic activity assay, β5c; type: biochemical; conditions: human recombinant constitutive proteasome 0.3 nM, FAM-labeled peptide substrate 1 μM, rt 3 h; read-out: β5c subunit IC50
[3] = biological target: immunoproteasome LPM2/β1i subunit (Homo sapiens, UniProt P28065); test: Caliper-based proteasome enzymatic activity assay, LMP2; type: biochemical; conditions: human recombinant immunoproteasome 0.3 nM, FAM-labeled peptide substrate 1 μM, rt 2 h
PBMC/LMP7 = PBMC/LMP7 (Homo sapiens, UniProt P28062); test: Proteasome-Glo inhibition of proteasome activity in cells, PBMC/LMP7; type: cell-based; conditions: 2 h incubation at 37° C.
Experimental: (§1) The cell-based effects of a compound described herein on the immunoproteasome were determined by measuring inhibition of proteasome activity in cells using the Proteasome-Glo™ Cell-Based Reagent (Promega, Madison WI). The Proteasome-Glo™ assay contains a specific luminogenic proteasome substrate in a buffer optimized for cell permeabilization, proteasome activity, and luciferase activity. For the chymotrypsin-like activity (LMP7 and β5c), the peptide substrate is Suc-LLVY-aminoluciferin (Succinyl-leucine-leucine-valine-tyrosine-aminoluciferin). Cleavage of the substrate by proteasome results in luminescent signal which is proportional to the proteasome activity. The cell line THP-1 (a monocytic leukemia cell line enriched in immunoproteasome), the cell line HT-29 (a colorectal adenocarcinoma cell line enriched in constitutive proteasome), and primary human peripheral blood mononuclear cells (PBMC) were used to assess proteasome activity. Cells were seeded in a 96-well plate at 10,000 cells per well in RPMI 1640 high glucose medium with 10% fetal bovine scrum (FBS). Compound dilutions were added to cells starting at a concentration of 5 uM and decreasing in tripling dilutions. The final DMSO concentration was 1%. The concentration range was adjusted as needed for compounds of different potencies. The cells treated with compounds were incubated for 2 h at 37° C. in 5% CO2. At the end of the 2 hour incubation period, cells were transferred to white 384 well assay plates. 20 uL of Proteasome-Glo™ Reagent was added to each well and incubated for 10 minutes at rt. The plate was read in the Analyst HT instrument (Molecular Devices, Sunnyvale, CA) using luminescence mode. The percent inhibition of activity was plotted as a function of log compound concentration. The IC50 was then calculated for each compound using Prism software from GraphPad Software Inc. (San Diego, CA).

HT29/B5c = HT29/B5c (Homo sapiens, UniProt P28074); test: Proteasome-Glo inhibition of proteasome activity in cells, HT29/B5c; type: cell-based; conditions: HT-29 cells, 2 h incubation at 37° C.
Experimental: as §1

Row | Structure (SMILES) | IC50 [1] | IC50 [2] | IC50 [3] | IC50 (PBMC/LMP7) | IC50 (HT29/B5c)
1 | CC(C)C=C(C#N)C(=O)N1CCC[C@@H]1CNC(=O)N[C@@H](Cc1ccccc1)B(O)O [Example 32, ((R)-1-(3-(((R)-1-(2-cyano-4-methylpent-2-enoyl)pyrrolidin-2-yl)methyl)ureido)-2-phenylethyl)boronic acid] | 37.2 nM | > 5000 nM | > 5000 nM | 110 nM | 
2 | CC(=O)N[C@@H](CCCCNC(=O)C(C#N)=CC(C)C)C(=O)N[C@@H](Cc1ccccc1)B(O)O [Example 11, ((R)-1-((S)-2-acetamido-6-(2-cyano-4-methylpent-2-enamido)hexanamido)-2-phenylethyl)boronic acid] | 2.6 nM | 4 nM |  | 390 nM | 
3 | CC(C)C=C(C#N)C(=O)N1CCCC[C@@H]1COC[C@H](NCC(F)(F)F)C(=O)N[C@@H](Cc1ccccc1)B(O)O [Example 25, ((R)-1-((S)-3-(((R)-1-(2-cyano-4-methylpent-2-enoyl)piperidin-2-yl)methoxy)-2-((2,2,2-trifluoroethyl)amino)propanamido)-2-phenylethyl)boronic acid] | 10 nM | 411 nM | 701 nM | 28 nM | 
4 | CC(C)C=C(C#N)C(=O)NCCCC[C@H](NCC(F)(F)F)C(=O)N[C@@H](Cc1ccccc1)B(O)O [Example 13, ((R)-1-((S)-6-(2-cyano-4-methylpent-2-enamido)-2-((2,2,2-trifluoroethyl)amino)hexanamido)-2-phenylethyl)boronic acid] | 67.1 nM | 292 nM | > 5000 nM | 50 nM | 242 nM
5 | CC(C)(C=C(C#N)C(=O)N1C2CCC1(COC(=O)N[C@@H](Cc1ccccc1)B(O)O)CC2)N1CCC(F)(F)C1 [Example 57, (R)-(1-((((7-(2-cyano-4-(3,3-difluoropyrrolidin-1-yl)-4-methylpent-2-enoyl)-7-azabicyclo[2.2.1]heptan-1-yl)methoxy)carbonyl)amino)-2-phenylethyl)boronic acid] | 2.6 nM | 1620 nM | 3190 nM |  | 
6 | N#CC(=CC1CC1)C(=O)N1CCC[C@@H]1COC[C@H](NCC(F)(F)F)C(=O)N[C@@H](Cc1ccccc1)B(O)O [Example 22, (R)-1-((S)-3-(((R)-1-(2-cyano-3-cyclopropylacryloyl)pyrrolidin-2-yl)methoxy)-2-(2,2,2-trifluoroethylamino)propanamido)-2-phenylethylboronic acid] | 22 nM | 308 nM |  | 39 nM | 
7 | CC(C)(C=C(C#N)C(=O)N1CCC[C@H](OC(=O)N[C@@H](Cc2coc3ccccc23)B(O)O)C1)N1CCC(F)(F)C1 [Example 73, ((R)-2-(benzofuran-3-yl)-1-(((((S)-1-(2-cyano-4-(3,3-difluoropyrrolidin-1-yl)-4-methylpent-2-enoyl)piperidin-3-yl)oxy)carbonyl)amino)ethyl)boronic acid] | 1.1 nM | 54.6 nM | > 5000 nM |  | 
8 | CC(C)(C)C=C(C#N)C(=O)N1CCCC[C@H]1CNC(=O)N[C@@H](Cc1ccccc1)B(O)O [Example 40, ((R)-1-(3-(((S)-1-(2-cyano-4,4-dimethylpent-2-enoyl)piperidin-2-yl)methyl)ureido)-2-phenylethyl)boronic acid] | 669 nM | > 5000 nM | > 5000 nM |  | 
9 | CC(C)(C=C(C#N)C(=O)N1CCC[C@H](OC(=O)N[C@@H](Cc2ccc(F)cc2)B(O)O)C1)N1CCC(F)(F)C1 [Example 78, ((R)-1-(((((S)-1-(2-cyano-4-(3,3-difluoropyrrolidin-1-yl)-4-methylpent-2-enoyl)piperidin-3-yl)oxy)carbonyl)amino)-2-(4-fluorophenyl)ethyl)boronic acid] | 2.3 nM | 501 nM | > 5000 nM |  | 
10 | Cc1ccc(C[C@H](NC(=O)NC[C@H]2CCCN2C(=O)C(C#N)=CC(C)(C)C)B(O)O)cc1 [Example 43, ((R)-1-(3-(((R)-1-(2-cyano-4,4-dimethylpent-2-enoyl)pyrrolidin-2-yl)methyl)ureido)-2-(p-tolyl)ethyl)boronic acid] | 4.4 nM | > 5000 nM | > 5000 nM |  | 
11 | CC(C)(C=C(C#N)C(=O)N1CCC[C@@H]1CNC(=O)N[C@@H](Cc1coc2ccccc12)B(O)O)N1CCOCC1 [Example 47, ((R)-2-(benzofuran-3-yl)-1-(3-(((R)—1(2-cyano-4-methyl-4-morpholinopent-2-enoyl)pyrrolidin-2-yl)methyl)ureido)ethyl)boronic acid] | 3.5 nM | 1900 nM | > 5000 nM |  | 
12 | Cc1ccc(C[C@H](NC(=O)OC[C@H]2CCN(C(=O)C(C#N)=CC(C)(C)C)C2)B(O)O)cc1 [Example 46, ((R)-1-(((((S)-1-(2-cyano-4,4-dimethylpent-2-enoyl)pyrrolidin-3-yl)methoxy)carbonyl)amino)-2-(p-tolyl)ethyl)boronic acid] | 4 nM | 1690 nM | > 5000 nM |  | 
13 | CC(C)C=C(C#N)C(=O)N(C)c1cccc(C[C@H](NC(=O)c2cnccn2)C(=O)N[C@@H](Cc2ccccc2)B(O)O)c1 [Example 21, ((R)-1-((S)-3-(3-(2-cyano-N,4-dimethylpent-2-enamido)phenyl)-2-(pyrazine-2-carboxamido)propanamido)-2-phenylethyl)boronic acid] | 2.5 nM | 21.1 nM |  | 73 nM | 
14 | CC(C)C=C(C#N)C(=O)N1CCC[C@H]1CNC(=O)N[C@@H](Cc1ccccc1)B(O)O [Example 34, ((R)-1-(3-(((S)-1-(2-cyano-4-methylpent-2-enoyl)pyrrolidin-2-yl)methyl)ureido)-2-phenylethyl)boronic acid] | 231 nM | > 5000 nM | > 5000 nM |  | 
15 | CC(C)C=C(C#N)C(=O)NCCCC[C@H](NC(=O)c1cccc(O)n1)C(=O)N[C@@H](Cc1ccccc1)B(O)O [Example 6, ((R)-1-((S)-6-(2-cyano-4-methylpent-2-enamido)-2-(6-hydroxypicolinamido)hexanamido)-2-phenylethyl)boronic acid] | 12.9 nM | 38.5 nM | 82.7 nM |  | 
16 | C=CC(=O)N1CCC[C@@H]1CNC(=O)N[C@@H](Cc1ccccc1)B(O)O [Example 36, ((R)-1-(3-(((R)-1-acryloylpyrrolidin-2-yl)methyl)ureido)-2-phenylethyl)boronic acid] | 1140 nM | > 5000 nM | > 5000 nM |  | 
17 | C=CC(=O)N1CC[C@H](OC(=O)N[C@@H](Cc2ccccc2)B(O)O)C1 [Example 88, ((R)-1-(((((S)-1-acryloylpyrrolidin-3-yl)oxy)carbonyl)amino)-2-phenylethyl)boronic acid] | 113 nM | 1610 nM | 1860 nM |  | 
18 | C=CC(=O)N1CCCC[C@H]1CNC(=O)N[C@@H](Cc1ccccc1)B(O)O [Example 38, ((R)-1-(3-(((S)-1-acryloylpiperidin-2-yl)methyl)ureido)-2-phenylethyl)boronic acid] | > 5000 nM | > 5000 nM | > 5000 nM |  | 
19 | Cc1ccc(C[C@H](NC(=O)OC[C@H]2CCCN(C(=O)C(C#N)=CC(C)(C)C)C2)B(O)O)cc1 [Example 44, ((R)-1-(((((S)-1-(2-cyano-4,4-dimethylpent-2-enoyl)piperidin-3-yl)methoxy)carbonyl)amino)-2-(p-tolyl)ethyl)boronic acid] | 2.2 nM | 2850 nM | > 5000 nM |  | 
20 | CC(C)C=C(C#N)C(=O)NCCCC[C@H](NC(=O)c1cnccn1)C(=O)N[C@@H](Cc1ccccc1)B(O)O [Example 5, ((R)-1-((S)-6-(2-cyano-4-methylpent-2-enamido)-2-(pyrazine-2-carboxamido)hexanamido)-2-phenylethyl)boronic acid] | 12.3 nM | 27.4 nM | 115 nM |  | 
21 | CC(C)C=C(C#N)C(=O)NCCCC[C@H](NC(=O)c1cc(Cl)ccc1Cl)C(=O)N[C@@H](Cc1ccccc1)B(O)O [Example 8, ((R)-1-((S)-6-(2-cyano-4-methylpent-2-enamido)-2-(2,5-dichlorobenzamido)hexanamido)-2-phenylethyl)boronic acid] | 2.4 nM | 4.4 nM | 79 nM | 39 nM | 
22 | Cc1ccc(C[C@H](NC(=O)NC[C@@H]2CCCN2C(=O)C(C#N)=CC(C)(C)C)B(O)O)cc1 [Example 42, ((R)-1-(3-(((S)-1-(2-cyano-4,4-dimethylpent-2-enoyl)pyrrolidin-2-yl)methyl)ureido)-2-(p-tolyl)ethyl)boronic acid] | 13 nM | > 5000 nM | > 5000 nM |  | 
